Reference: patent US9776991B2, “Thienomethylpiperazine derivatives as inhibitors of soluble epoxide hydrolase” (SANOFI, priority 2013, dated 2017)
Counter-ions that a name gives are not always drawn.

What follows are compounds tested against recombinant sEH (soluble epoxide hydrolase, EPHX2) (Homo sapiens (Human), UniProt P34913) (assay: biochemical fluorometric sEH inhibition assay with Phome substrate). Conditions: recombinant sEH purified from Sf9 insect cells, 2 nM sEH, 5 μM Phome, 60 minutes at 30° C.
Sequence of recombinant sEH (soluble epoxide hydrolase, EPHX2) (P34913 whole entry): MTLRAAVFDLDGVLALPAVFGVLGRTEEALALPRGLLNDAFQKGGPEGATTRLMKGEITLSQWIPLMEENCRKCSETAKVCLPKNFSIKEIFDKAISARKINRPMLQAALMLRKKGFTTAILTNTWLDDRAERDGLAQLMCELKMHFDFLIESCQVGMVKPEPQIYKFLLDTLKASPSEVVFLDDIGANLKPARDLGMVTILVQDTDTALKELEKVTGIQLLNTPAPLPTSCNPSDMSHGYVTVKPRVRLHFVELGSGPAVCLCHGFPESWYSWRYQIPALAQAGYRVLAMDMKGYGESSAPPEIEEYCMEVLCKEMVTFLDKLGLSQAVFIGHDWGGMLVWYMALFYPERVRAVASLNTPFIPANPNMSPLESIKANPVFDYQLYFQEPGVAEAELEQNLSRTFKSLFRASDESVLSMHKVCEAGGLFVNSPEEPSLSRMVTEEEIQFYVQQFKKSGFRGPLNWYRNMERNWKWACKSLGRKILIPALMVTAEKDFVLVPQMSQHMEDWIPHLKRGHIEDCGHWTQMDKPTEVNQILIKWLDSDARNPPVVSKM
Procedure: Compounds were tested in a biochemical screening assay using recombinant sEH purified from Sf9 insect cells and an artificial substrate, (3-phenyl-oxiranyl)-acetic acid cyano-(6-methoxy-naphtalen-2-yl)-methyl ester, Phome. The biochemical assay was performed in analogy to a fluorometric described in the literature (P. D. Jones et al., Anal. Biochem. 2005, 343, 66-75). The assay principle bases on the sEH-catalyzed hydrolysis of an artificial α-cyano-ester substrate. O-deacetylation liberates a cyanohydrin intermediate that rapidly decomposes to the highly fluorescent 6-methoxy-2-naphtaldehyde. To discriminate sample autofluorescence, the assay was carried out as a kinetic measurement with two time points. The first measurement is performed immediately before addition of the substrate and the […] measurement is done after completion of the assay. The assay format is either in 96- or in 384-well format.
Details of the assay using a 96-well plate format are described below. 40 μl recombinant sEH enzyme and 5 μl test compound are pre-incubated for 15 minutes at 30° C. Following pre-incubation, the reaction is started by addition of 5 μl Phome. The assay mixture containing 2 nM final sEH concentration, test compound ranging in a concentration from 0.0001-10 μM and 5 μM Phome is incubated for 60 minutes at 30° C.
Fluorescence is measured with any suitable detector for instance a TECAN Safire or Tecan Ultra at […]. % inhibition of recombinant sEH activity is used for calculation of corresponding IC50 values as illustrated and described in the examples.
The NCBI gene bank reference sequence with the accession number NM_001979 for EPHX2/sEH was applied for recombinant protein production:
The following commercially available materials have been used: • Incubation reagent: 25 mM Hepes (Sigma-Aldrich, Cat. No H-3375), 0.01% bovine albumin (Sigma-Aldrich Cat. No PA9205) • Substrate: 3-Phenyl-oxiranyl)-acetic acid cyano-(6-methoxy-naphtalen-2-yl)-methyl ester, Phome (Biozol Cat. No 10003134) • Microtiter plates: 96-well plates (Greiner Cat. No 655180; Costar Cat. No 3915)
`Cc1n[nH]c(C)c1C(=O)N1CCN(Cc2ncc(C(=O)NCc3ccc(Cl)cc3Cl)s2)CC1` [Example 206] was tested, and the IC50 was 5.24 nM. With `O=C(NCc1ccccc1C(F)(F)F)c1ccc(CN2CCN(C(=O)c3ccc(F)cc3Cl)CC2)s1` [Example 64] the IC50 was 1.25 nM. Compound `O=C(NCc1ccc(Cl)cc1Cl)c1ccc(CN2CCN(C(=O)c3nccc4ccccc34)CC2)s1` [Example 65] has an IC50 of 1.19 nM. With `CCCn1nccc1CNC(=O)c1ccc(CN2CCN(C(=O)c3c(C)cc(=O)oc3C)CC2)s1` [Example 78] the IC50 was 2.54 nM. In the case of `O=C(NCc1ccccc1OC(F)(F)F)c1ccc(CN2CCN(CC(F)(F)F)C(=O)C2)s1` [Example 111], the IC50 is reported as 2.23 nM. For `O=C(NCc1ccccc1OC(F)(F)F)c1ccc(CN2CCN(c3nncs3)CC2)s1` [Example 142], the IC50 was 1.82 nM. For `Cc1noc(C)c1C(=O)N1CCN(Cc2ccc(C(=O)NCc3ccc(Cl)cc3Cl)s2)CC1` [Example 2], the IC50 was 0.502 nM. Compound `O=C(NCc1ccccc1OC(F)(F)F)c1ccc(CN2CCN(c3cnccn3)CC2)s1` [Example 73] has an IC50 of 2.59 nM. `NC(CF)C(=O)N1CCN(Cc2ccc(C(=O)NCc3ccc(Cl)cc3Cl)s2)CC1` (stereo not shown) [Example 48] gave an IC50 of 2.69 nM. Compound `NC1(C(=O)N2CCN(Cc3ccc(C(=O)NCc4ccc(Cl)cc4Cl)s3)CC2)CC1` [Example 109] has an IC50 of 2.16 nM. With `Cc1cc(C(=O)NCCC(C)(C)C)sc1CN1CCN(C(=O)c2c(C)cc(=O)oc2C)CC1` [Example 28] the IC50 was 0.803 nM. Work on `O=C(NCc1ccc(Cl)cc1Cl)c1cnc(CN2CCN(C(=O)CN3CCC(O)C3)CC2)s1` (stereo not shown) [Example 211] yielded an IC50 of 90.9 nM. For `CC[C@H](O)C(=O)N1CCN(Cc2ncc(C(=O)NCc3ccc(Cl)cc3Cl)s2)CC1` [Example 191], the IC50 was 14 nM. `Cc1cncc(N2CCN(Cc3ccc(C(=O)NCc4ccccc4OC(F)(F)F)s3)CC2)n1` [Example 39] was tested, and the IC50 was 2.75 nM. Work on `Cn1ncc(Br)c1C(=O)N1CCN(Cc2ccc(C(=O)NCc3ccccc3C(F)(F)F)s2)CC1` [Example 52] yielded an IC50 of 0.955 nM. Compound `Cc1cc(N2CCN(Cc3ccc(C(=O)NCc4ccc(Cl)cc4Cl)s3)CC2)cc(C)n1` [Example 120, 5-[4-(2,6-Dimethyl-pyridin-4-yl)-piperazin-1-ylmethyl]-thiophene-2-carboxylic acid 2,4-dichloro-benzylamide] has an IC50 of 5.3 nM. With `COCC(=O)N1CCN(Cc2ncc(C(=O)NCc3ccc(Cl)cc3Cl)s2)CC1` [Example 192] the IC50 was 35.3 nM. `Cc1cccnc1N1CCN(Cc2ccc(C(=O)NCc3ccc(Cl)cc3Cl)s2)CC1=O` [Example 105] showed an IC50 of 2.33 nM. `O=C(NCc1ccccc1OC(F)(F)F)c1ccc(CN2CCN(c3nccs3)C(=O)C2)s1` [Example 47] gave an IC50 of 2.69 nM. `O=C(NCc1ccc(Cl)cc1Cl)c1cnc(CN2CCN(C(=O)CO)CC2)s1` [Example 181] showed an IC50 of 52.1 nM. Compound `COc1ccc(CNC(=O)c2ccc(CN3CCN(c4ccc(CO)cn4)CC3)s2)c(OC(F)(F)F)c1` [Example 146] has an IC50 of 1.94 nM. Work on `CO[C@H](C)C(=O)N1CCN(Cc2ccc(C(=O)NCc3ccccc3OC(F)(F)F)s2)CC1` [Example 93] yielded an IC50 of 1.31 nM. For `NC1(C(=O)N2CCN(Cc3ccc(C(=O)NCc4ccccc4OC(F)(F)F)s3)CC2)CCCCC1` [Example 157], the IC50 was 2.08 nM. `Cc1cc(=O)oc(C)c1C(=O)N1CCN(Cc2ccc(C(=O)NCc3ccccc3C(F)(F)F)s2)CC1` [Example 36] showed an IC50 of 0.906 nM. `O=C(NCc1ccccc1C(F)(F)F)c1ccc(CN2CCN(C(=O)c3ccccc3F)CC2)s1` [Example 119] gave an IC50 of 1.68 nM. Work on `Cc1cccc(C(=O)N2CCN(Cc3ccc(C(=O)NCc4ccccc4OC(F)(F)F)s3)CC2)n1` [Example 72] yielded an IC50 of 2.59 nM. Compound `O=C(NCc1ccc(Cl)cc1Cl)c1ccc(CN2CCN(C3CCC3)CC2)s1` [Example 27] has an IC50 of 0.803 nM. In the case of `CCC(C)(O)C(=O)N1CCN(Cc2ccc(C(=O)NCc3ccccc3OC(F)(F)F)s2)CC1` (stereo not shown) [Example 95], the IC50 is reported as 1.51 nM. `Cc1cc(=O)oc(C)c1C(=O)N1CCN(Cc2ccc(C(=O)NCc3ccc(C#N)cc3Cl)s2)CC1` [Example 80] was tested, and the IC50 was 2.53 nM. `O=C(NCc1ccccc1OC(F)(F)F)c1ccc(CN2CCN(C(=O)[C@@H]3CCC[C@@H]3O)CC2)s1` [Example 94] gave an IC50 of 1.5 nM. With `O=C(NCc1ccc(Cl)cc1Cl)c1ccc(CN2CCN(C(=O)C3(c4ccccc4)CC3)CC2)s1` [Example 58] the IC50 was 1.17 nM. `O=C(NCc1ccc(Cl)cc1Cl)c1ccc(CN2CCN(C(=O)Cc3ccccc3Cl)CC2)s1` [Example 69] was tested, and the IC50 was 2.61 nM. `Cc1cc(=O)oc(C)c1C(=O)N1CCN(Cc2ccc(C(=O)NCCC(C)(C)C)s2)CC1` [Example 10] gave an IC50 of 2.94 nM. Work on `Cc1cc(=O)oc(C)c1C(=O)N1CCN(Cc2ccc(C(=O)NCCCn3nc(C(F)(F)F)cc3C)s2)CC1` [Example 11] yielded an IC50 of 2.95 nM. `CC1(C)SCN[C@H]1C(=O)N1CCN(Cc2ccc(C(=O)NCc3ccccc3OC(F)(F)F)s2)CC1` [Example 110] was tested, and the IC50 was 2.16 nM. `COc1ccc(CNC(=O)c2ccc(CN3CCn4cnnc4C3)s2)c(OC(F)(F)F)c1` [Example 104] gave an IC50 of 2.33 nM. With `CC(C)[C@@H](O)C(=O)N1CCN(Cc2ccc(C(=O)NCc3ccccc3OC(F)(F)F)s2)CC1` [Example 101] the IC50 was 2.28 nM. `Cc1ccc(C(=O)N2CCN(Cc3ccc(C(=O)NCc4ccccc4C(F)(F)F)s3)CC2)s1` [Example 152] gave an IC50 of 2.07 nM. `CC(C(=O)N1CCN(Cc2ncc(C(=O)NCc3ccc(Cl)cc3Cl)s2)CC1)N(C)C` (stereo not shown) [Example 177, 2-[4-(2-Dimethylamino-propionyl)-piperazin-1-ylmethyl]-thiazole-5-carboxylic acid 2,4-dichloro-benzylamide] showed an IC50 of 91.1 nM. For `Cc1cc(=O)oc(C)c1C(=O)N1CCN(Cc2ccc(C(=O)NCC3CCc4ccccc43)s2)CC1` (stereo not shown) [Example 23], the IC50 was 2.75 nM. Work on `O=C(NCc1ccccc1OC(F)(F)F)c1ccc(CN2CCN(C(=O)c3ccc[nH]c3=O)CC2)s1` [Example 66] yielded an IC50 of 1.25 nM. In the case of `O=C(NCc1ccccc1C(F)(F)F)c1ccc(CN2CCN(C(=O)c3cscc3Br)CC2)s1` [Example 18], the IC50 is reported as 0.678 nM. Compound `CC(C)(O)C(=O)N1CCN(Cc2ccc(C(=O)NCc3ccccc3OC(F)(F)F)s2)CC1` [Example 123] has an IC50 of 1.69 nM. With `CC(C)CCNC(=O)c1ccc(CN2CCN(C(=O)c3ccnn3C(F)F)CC2)s1` [Example 13] the IC50 was 2.98 nM. With `CC(C(=O)N1CCN(Cc2ccc(C(=O)NCc3ccccc3C(F)(F)F)s2)CC1)c1ccccc1` (stereo not shown) [Example 98] the IC50 was 1.52 nM. Work on `O=C(NCc1ccc(Cl)cc1Cl)c1cnc(CN2CCN(C(=O)c3nc(F)ccc3F)CC2)s1` [Example 180] yielded an IC50 of 8.46 nM. With `O=C(NCc1ccccc1C(F)(F)F)c1ccc(CN2CCN(C(=O)C3Cc4ccccc43)CC2)s1` (stereo not shown) [Example 6] the IC50 was 0.528 nM. Compound `CC(C)[C@@H](O)C(=O)N1CCN(Cc2ncc(C(=O)NCc3ccc(Cl)cc3Cl)s2)CC1` [Example 198] has an IC50 of 13.3 nM. `O=C(NCc1ccc(Cl)cc1Cl)c1ccc(CN2CCN(c3ccc(O)nn3)CC2)s1` [Example 50] was tested, and the IC50 was 2.67 nM. Compound `Cc1noc(C)c1C(=O)N1CCN(Cc2ccc(C(=O)NCc3ccccc3OC(F)(F)F)s2)CC1` [Example 122] has an IC50 of 1.74 nM. For `COc1ccc(CNC(=O)c2ccc(CN3CCN(C)C(=O)C3)s2)c(OC(F)(F)F)c1` [Example 134], the IC50 was 2.15 nM. `COc1cc(CNC(=O)c2ccc(CN3CCN(C(=O)c4nc(F)ccc4F)CC3)s2)ccn1` [Example 149, 5-[4-(3,6-Difluoro-pyridine-2-carbonyl)-piperazin-1-ylmethyl]-thiophene-2-carboxylic acid (2-methoxy-pyridin-4-ylmethyl)-amide] was tested, and the IC50 was 8.2 nM. Work on `CC[C@@H](O)C(=O)N1CCN(Cc2ncc(C(=O)NCc3ccc(Cl)cc3Cl)s2)CC1` [Example 179] yielded an IC50 of 24.1 nM. With `COc1cc(CNC(=O)c2ccc(CN3CCN(C(=O)c4c(C)n[nH]c4C)CC3)s2)ccn1` [Example 139, 5-[4-(3,5-Dimethyl-1H-pyrazole-4-carbonyl)-piperazin-1-ylmethyl]-thiophene-2-carboxylic acid (2-methoxy-pyridin-4-ylmethyl)-amide trifluoroacetate] the IC50 was 2.85 nM. `COCCC(=O)N1CCN(Cc2ccc(C(=O)NCc3ccccc3OC(F)(F)F)s2)CC1` [Example 116] was tested, and the IC50 was 1.6 nM. `COCc1cc(O)nc(N2CCN(Cc3ccc(C(=O)NCc4ccccc4OC(F)(F)F)s3)CC2)n1` [Example 158] gave an IC50 of 2.04 nM. With `NC1(C(=O)N2CCN(Cc3ncc(C(=O)NCc4ccc(Cl)cc4Cl)s3)CC2)CC1` [Example 200] the IC50 was 2.57 nM. For `Cc1ccc(O)c(C(=O)N2CCN(Cc3ccc(C(=O)NCc4ccccc4OC(F)(F)F)s3)CC2)n1` [Example 79], the IC50 was 2.54 nM. In the case of `CC1(C)SCN[C@H]1C(=O)N1CCN(Cc2ccc(C(=O)NCc3ccc(Cl)cc3Cl)s2)CC1` [Example 103], the IC50 is reported as 2.32 nM. With `O=C(NCc1ccccc1OC(F)(F)F)c1ccc(CN2CCN(C(=O)CCO)CC2)s1` [Example 106] the IC50 was 2.18 nM. `CCc1oncc1C(=O)N1CCN(Cc2ccc(C(=O)NCc3ccccc3C(F)(F)F)s2)CC1` [Example 117] was tested, and the IC50 was 1.64 nM.
